# In patent US9650395B2, “Antibacterial compounds and methods for use” (PTC Therapeutics, Inc., priority 2011, dated 2017):
# Where two headings read alike, the source gives them in different places.
# Tests used:
# [1] = system: quinolone resistant E. coli LZ3111; assay: Antibacterial activity, MIC, quinolone resistant E. coli LZ3111; type: cell-based, Escherichia coli; conditions: Escherichia coli, read-out: MIC, LZ3111
# Excerpt: The antibacterial activity from a microbroth dilution method may be presented as the minimum inhibitory concentration (MIC in […]). The MIC value is the lowest concentration of a drug which prevents macroscopically visible bacterial growth under test conditions.
# Mutations in these regions are known to confer a high level resistance to the quinolone class of antibiotics.
# [2] = system: control Gram-negative E. coli 25922 strain; assay: Antibacterial activity, microbroth dilution MIC, E. coli 25922; type: cell-based, Escherichia coli; conditions: Escherichia coli; E. coli 25922, microbroth dilution; read-out: MIC, 25922
# [3] = system: Gram-positive Staphylococcus aureus (S. aureus) 29213; assay: Antibacterial activity, microbroth dilution MIC, S. aureus 29213; type: cell-based; conditions: Staphylococcus aureus; S. aureus 29213, microbroth dilution; read-out: MIC, 29213
# [4] = system: super sensitive Gram-negative Escherichia coli (E. coli) BAS849; assay: Antibacterial activity, microbroth dilution MIC, E. coli BAS849; type: cell-based; conditions: Escherichia coli, read-out: MIC, BAS849
# [5] = E. coli BAS849, microbroth dilution
Compound,MIC [1] [µg/mL],MIC [2] [µg/mL],MIC [3] [µg/mL],MIC [4] [µg/mL],"MIC [4, 5] [µg/mL]"
"CCc1cc(C(=O)O)c(=O)[nH]c1-c1ccc(N2C[C@@H](N)[C@@H](O)C2)cc1.O=C(O)C(F)(F)F [Cpd 136, 6-{4-[(3R,4S)-3-amino-4-hydroxypyrrolidin-1-yl]phenyl}-5-ethyl-2-oxo-1,2-dihydropyridine-3-carboxylic acid trifluoroacetate]",12.5 to 150,12.5 to 150,12.5 to 150,1 to 3.5,–
"CCc1cc(C(=O)O)c(=O)[nH]c1-c1ccc(NCCN(C)C)cc1 [Cpd 159, 6-(4-{[2-(dimethylamino)ethyl]amino}phenyl)-5-ethyl-2-oxo-1,2-dihydropyridine-3-carboxylic acid]",12.5 to 150,12.5 to 150,12.5 to 150,–,1 to 3.5
"CCc1cc(C(=O)O)c(=O)[nH]c1-c1ccc(N2CCO[C@H]3CNC[C@H]32)cc1.O=C(O)C(F)(F)F [Cpd 186, 5-ethyl-6-{4-[(4aR,7aS)-hexahydropyrrolo[3,4-b][1,4]oxazin-4(4aH)-yl]phenyl}-2-oxo-1,2-dihydropyridine-3-carboxylic acid trifluoroacetate]",–,12.5 to 150,12.5 to 150,12.5 to 150,–
"CCc1cc(C(=O)O)c(=O)[nH]c1-c1ccc(N2C[C@H]3CCN(Cc4ccccc4)[C@H]3C2)cc1.O=C(O)C(F)(F)F [Cpd 189, 6-{4-[(3aR,6aR)-1-benzylhexahydropyrrolo[3,4-b]pyrrol-5(1H)-yl]phenyl}-5-ethyl-2-oxo-1,2-dihydropyridine-3-carboxylic acid trifluoroacetate]",–,3.5 to 12.5,12.5 to 150,< 1,–
"C=CCN(CC=C)c1ccc(-c2[nH]c(=O)c(C(=O)O)cc2CC)cc1 [Cpd 299, 6-{4-[di(prop-2-en-1-yl)amino]phenyl}-5-ethyl-2-oxo-1,2-dihydropyridine-3-carboxylic acid]",–,12.5 to 150,12.5 to 150,–,1 to 3.5
"CCc1cc(C(=O)O)c(=O)[nH]c1-c1ccc(N2C[C@@H](O)[C@@H](O)C2)cc1 [Cpd 303, 6-{4-[(3R,4S)-3,4-dihydroxypyrrolidin-1-yl]phenyl}-5-ethyl-2-oxo-1,2-dihydropyridine-3-carboxylic acid]",–,12.5 to 150,12.5 to 150,–,< 1
"CCc1cc(C(=O)O)c(=O)[nH]c1-c1ccc(N(C)C)s1 [Cpd 305, 6-[5-(dimethylamino)thiophen-2-yl]-5-ethyl-2-oxo-1,2-dihydropyridine-3-carboxylic acid]",–,12.5 to 150,12.5 to 150,–,< 1
"CCc1c(-c2ccc(N3CCCC3)s2)[nH]c(=O)c(C(=O)O)c1O [Cpd 307, 5-ethyl-4-hydroxy-2-oxo-6-[5-(pyrrolidin-1-yl)thiophen-2-yl]-1,2-dihydropyridine-3-carboxylic acid]",–,12.5 to 150,3.5 to 12.5,–,< 1
"CCc1cc(C(=O)O)c(=O)[nH]c1-c1ccc(N2CCCCC2)s1 [Cpd 308, 5-ethyl-2-oxo-6-[5-(piperidin-1-yl)thiophen-2-yl]-1,2-dihydropyridine-3-carboxylic acid]",–,12.5 to 150,12.5 to 150,–,1 to 3.5
"CCc1c(-c2ccc(N3CCCCC3)s2)[nH]c(=O)c(C(=O)O)c1O [Cpd 309, 5-ethyl-4-hydroxy-2-oxo-6-[5-(piperidin-1-yl)thiophen-2-yl]-1,2-dihydropyridine-3-carboxylic acid]",–,12.5 to 150,3.5 to 12.5,–,< 1
"CCc1cc(C(=O)O)c(=O)[nH]c1-c1ccc(OC(C)(C)C)cc1 [Cpd 311, 6-(4-tert-butoxyphenyl)-5-ethyl-2-oxo-1,2-dihydropyridine-3-carboxylic acid]",–,12.5 to 150,12.5 to 150,–,3.5 to 12.5
"CCc1cc(C(=O)O)c(=O)[nH]c1-c1ccnn1C [Cpd 344, 5-ethyl-6-(1-methyl-1H-pyrazol-5-yl)-2-oxo-1,2-dihydropyridine-3-carboxylic acid]",–,12.5 to 150,12.5 to 150,–,12.5 to 150
"CCc1c(-c2ccnn2C)[nH]c(=O)c(C(=O)O)c1O [Cpd 345, 5-ethyl-4-hydroxy-6-(1-methyl-1H-pyrazol-5-yl)-2-oxo-1,2-dihydropyridine-3-carboxylic acid]",–,12.5 to 150,12.5 to 150,–,12.5 to 150
"CCc1cc(C(=O)O)c(=O)[nH]c1-c1cnn(C)c1 [Cpd 346, 5-ethyl-6-(1-methyl-1H-pyrazol-4-yl)-2-oxo-1,2-dihydropyridine-3-carboxylic acid]",–,12.5 to 150,12.5 to 150,–,12.5 to 150
"CCc1c(-c2cnn(C)c2)[nH]c(=O)c(C(=O)O)c1O [Cpd 347, 5-ethyl-4-hydroxy-6-(1-methyl-1H-pyrazol-4-yl)-2-oxo-1,2-dihydropyridine-3-carboxylic acid]",–,3.5 to 12.5,12.5 to 150,–,1 to 3.5
